Results: PMC2965028 (Biochemistry, 2010)

Experiments:
[1] = biological target: wt HIV-1 IN (Human immunodeficiency virus type 1 group M subtype B, UniProt P12497); conditions: read-out: IC50, inhibition with two blunt-ended DNA molecules in SC; cited from earlier work
[2] = biological target: Q148H IN (Human immunodeficiency virus type 1 group M subtype B, UniProt P12497, Q1295H); format: biochemical, HIV-1; conditions: IC50 Q148H vs IC50 wt IN
[3] = biological target: HIV-1 synaptic complex (SC) (Human immunodeficiency virus type 1 group M subtype B, UniProt P12497); experiment: Trapping of SC and H-SC on native agarose gels; format: biochemical; conditions: wt IN 20 nM, U5 DNA 0.5 nM, 2 h at 37°C, native agarose gel
[4] = tested on: HIV-1; conditions: in 50% normal human serum; cited from earlier work
[5] = tested on: wt IN-DNA complex; conditions: cited from earlier work
[6] = tested on: N155H IN-DNA complex; conditions: cited from earlier work
[7] = biological target: N155H IN (Human immunodeficiency virus type 1 group M subtype B, UniProt P12497, N1302H); format: biochemical, HIV-1; conditions: IC50 N155H vs IC50 wt IN

SMILES | Inhibitor concentration at which trapped SC and H-SC were first detected [3] [nM] | Dissociation half-life from wt IN-DNA complex [5] [h] | Dissociation half-life from N155H IN-DNA complex [6] [h] | other results
O=C(NCc1ccc(F)cc1)c1nc(N2CCCCS2(=O)=O)c2cccnc2c1O [L-870,810] |  |  |  | IC50 [1]: ~32 nM
CCN1C[C@H](C)n2c(c(O)c3c(=O)n(Cc4ccc(F)c(Cl)c4)nc(C(=O)NC)c32)C1=O [MK-2048] | ≥ 10 | ~32 | ~4 | Fold change in IC50 for FS products, Q148H IN relative to wt IN (resistance) [2]: 2 fold; Antiviral activity IC95 [4]: 41 nM
O=C(O)C(=O)/C=C(\O)c1ccc2c(c1)c(=O)c(/C(O)=C/C(=O)C(=O)O)cn2Cc1ccc(F)cc1 [RDS 1997] | ≥ 50 |  |  | 
O=C(O)C(=O)C=C(O)c1cn(Cc2ccc(F)cc2)c2cc(N3CCCC3)ccc2c1=O [RDS 2197] | ≥ 250 |  |  | Fold change in IC50 for FS products, N155H IN relative to wt IN (resistance) [7]: 1.3 fold
Cc1nnc(C(=O)NC(C)(C)c2nc(C(=O)NCc3ccc(F)cc3)c(O)c(=O)n2C)o1 [RAL, raltegravir] |  | 7.3 | ~0.7 | 
